Assay results: patent US20230240288A1, “FRUIT TREE POLLINATION METHOD FOR PREVENTING AND CONTROLLING ERWINIA AMYLOVORA-CAUSED DISEASE” (ZHEJIANG UNIVERSITY, priority 2022, published 2023)
Values after ≈ are worked out from the molar mass of the structure shown.

Columns and labels:
[1] = system: Erwinia amylovora; assay: Orchard pollination test (II): liquid pollination, bacteria-free pollen, orchard with moderate pear fire blight; settings: artificial pollination with pollen containing the agent, moderate occurrence orchard
Protocol: 10 g of xanthan gum was dissolved in 2.5 L of continuously-boiling water and cooled to obtain a solution I; 6.5 kg of white sugar was dissolved with 10 L of hot water to obtain a solution II; 25 g of calcium nitrate and 5 g of boric acid were dissolved in 0.5 L of water to obtain a solution III; the above three solutions were poured into a large container, then added with 30 L of water, and stirred well to prepare a nutrient solution for later use. […]
4 g of the pollen was added to 4 L of a prepared nutrient solution containing the agent, stirred to make the pollen evenly dispersed to prepare a pollen suspension, which was then pollinated by spraying with a shoulder-back electric sprayer. […] A pollen suspension prepared with water instead of the agent was set as a positive control group, and the pollen suspension prepared with water instead of the agent and sprayed on disease-free trees was set as a negative control group, and 3 trees were treated by each group.2 weeks after pollination, a fruit setting rate and the number of flower rot and diseased fruit were counted to calculate an incidence.

[2] = system: Erwinia amylovora XJSZ0102; assay: Inhibition zone (filter paper) method, high-concentration screening of 52 agents; format: cell-based; settings: results of filter paper method and turbidimetry; at a high concentration
[3] = system: Erwinia amylovora; assay: Orchard pollination test (I): liquid pollination, bacteria-carrying pollen, disease-free bergamot pear trees; settings: artificial pollination with pollen suspension containing the agent
Protocol: 10 g of xanthan gum was dissolved in 2.5 L of continuously-boiling water and cooled to obtain a solution I; 6.5 kg of white sugar was dissolved with 10 L of hot water to obtain a solution II; 25 g of calcium nitrate and 5 g of boric acid were dissolved in 0.5 L of water to obtain a solution III; the above three solutions were poured into a large container, then added with 30 L of water, and stirred well to prepare a nutrient solution for later use.
Each agent was diluted with water to form a stock solution, and 100 mL of the stock solution was added to 9.9 L of the nutrient solution, fully stirred and mixed, such that a final concentration of the agent in the nutrient solution was shown in Table 7, and 9 groups of agent treatments were obtained in total.
4 g of the pollen was added to 4 L of a prepared nutrient solution containing the agent, stirred to make the pollen evenly dispersed to prepare a pollen suspension, which was then pollinated by spraying with a shoulder-back electric sprayer. The pollination period was at 40% blooming and at 80% blooming separately, each tree was sprayed with 1 L of the pollen suspension, and each agent treatment group was sprayed to pollinate 3 trees. […] 2 weeks after pollination, a fruit setting rate and the number of flower rot and diseased fruit were counted to calculate an incidence.

[4] = system: Erwinia amylovora XJSZ0102; assay: Toxicity of bactericides against Erwinia amylovora (growth inhibition OD600, EC50 regression)
[5] = Erwinia amylovora, XJSZ0102, 24 h, read-out: Inhibition rate (%)

Row | Compound | incidence of pear fire blight-based flower rot and fruit rot, compared with positive control group [1] | bacteriostatic effect on Erwinia amylovora [2] | incidence of flower rot and fruit rot caused by pear fire blight, compared with positive control [3] | EC50 ([4]; Erwinia amylovora, XJSZ0102, 24 h) [µg/mL] | inhibition at 0.0125 µg/mL [4, 5] [%] | inhibition at 0.0175 µg/mL [4, 5] [%] | inhibition at 0.025 µg/mL [4, 5] [%] | inhibition at 0.035 µg/mL [4, 5] [%] | inhibition at 0.05 µg/mL [4, 5] [%] | Inhibition rate (%) ([4]; concentration 0.100 mg/L, 24 h) | Inhibition rate (%) ([4]; concentration 0.160 mg/L, 24 h) | Inhibition rate (%) ([4]; concentration 0.256 mg/L, 24 h) | Inhibition rate (%) ([4]; concentration 0.410 mg/L, 24 h) | Inhibition rate (%) ([4]; concentration 0.655 mg/L, 24 h) | EC50 ([4]; toxic regression analysis of bacteriostasis rate, 24 h) [µg/mL]
1 | CCCSc1ccc2nc(NC(=O)OC)[nH]c2c1 [Albendazole, albendazole] | significantly lower than that of the positive control group | desirable bacteriostatic effect | significantly lower incidence than that of the positive control | 0.022 (≈ 0.0829 µM) | 15.2 | 33 | 54.6 | 82 | 95.4 |  |  |  |  |  | 
2 | zhongshengmycin | significantly lower than that of the positive control group | desirable bacteriostatic effect | significantly lower incidence than that of the positive control |  |  |  |  |  |  | 28.58 | 40.31 | 56.63 | 66.08 | 81.07 | 0.22
